Measurements as given in patent US20050112573A1, “Method of detecting toxic substance” (priority 2001, published 2005).

Test system: yeast genes (level of expressed mRNA)
Assay: DNA chip analysis of expressed mRNA of yeast genes after 2 h culture with a toxic chemical substance
Format: cell-based, Saccharomyces cerevisiae S288C
Conditions: for The level of expressed mRNA in the presence of chemical substance/ (ratio to absence of chemical substance): stress protein genes, DNA chip
Procedure: Yeast (Saccharomyces cerevtisiae S288C (α SUC2mal mel gap2 CUP1)) were cultured at 25° C. on YPD medium (yeast extract 1%, polypepton 2%, glucose 2%). One of toxic chemical substances was added to the cell at logarithmic growth phase, and the cell was further cultured for two hours. Cell was cultured without any chemical substance in the same condition, and was used as control. Concentrations of the chemical substances were defined to inhibit the growth of the yeast but not lead to death.
After the completion of cultivation, the culture was centrifuged to collect the cells. To the cells, sodium acetate buffer (50 mM sodium acetate, 10 mM EDTA, 1% SDS) was added, and the mixture was shaken at 65° C. for five minutes, followed by returning to room temperature, and obtaining the supernatant, which procedure was repeated two times. To the supernatant, ½ amount of a solution of phenol/chloroform was added, and the mixture was centrifuged to give a supernatant, which was added with an equal amount of chloroform, and the mixture was centrifuged to give a supernatant. To the supernatant, an equal amount of isopropanol containing 0.3 M sodium acetate was added, and the mixture was allowed to stand at room temperature for 30 minutes, after which the mixture was centrifuged to give a sediment of the whole RNAs. Seventy % ethanol was added to the sediment, and the mixture was again centrifuged to give a sediment, which was then dried and dissolved in water. mRNA was isolated from the whole RNAs as followings. In view of the fact that a poly A chain is attached to the 3′ terminus of mRNA, a polynucleotide having a poly T structure which was immobilized on the surface of latex beads was used to trap the mRNA, and then the mRNA was washed and eluted with spine column (Oligotex-dT30<Super>mRNA Purification Kit, Takara). Reverse transcription of the mRNA was conducted with a reverse transcriptase (Super Script II Reverse Transcriptase; catalogue No. 18064-014, GibcoBRL) using fluorescence-labeled nucleotides to give cDNAs that were introduced with Cy3-dUTP or Cy5-dUTP during the reverse transcription.
The labeled cDNAs were dissolved in TE buffer (10 mM Tris-HCl/1 mM EDTA, pH8.0), and the solution was dropped on the DNA chip containing the whole genes of yeast (DNA Chip Research Inc. Japan) so that the cDNAs were hybridized on the DNA chip at 65° C. for over 12 hours. The fluoresces intensity of the DNA chip was read with a scanner, and the ratio relative to the fluorescence intensity resulting from the absence of chemical substance was estimated as the following, which is shown in Tables 1 to 9: [formula]
In the Tables, “Intensity” indicated in the rightmost column is a value of the level of expressed mRNA of each gene in control cells as divided by the average level of the expressions of the whole genes.

C[S+](C)[O-] [(15), dimethylsulfoxide]
The level of expressed mRNA in the presence of chemical substance/absence: YOR267C (gene YOR267C): 1.3
The level of expressed mRNA in the presence of chemical substance/absence: YOR325W (gene YOR325W): 0.7
level of expressed mRNA in the presence of chemical substance/in its absence (gene YOR336W): 0.6
level of expressed mRNA in the presence of chemical substance/in its absence (gene YOR344C): 0.7
level of expressed mRNA in the presence of chemical substance/in its absence (gene YOR347C): 2.0
The level of expressed mRNA in the presence of chemical substance/absence: YPL005W (gene YPL005W): 1.2
level of expressed mRNA in the presence of chemical substance/in its absence (gene YPL017C): 1.0
The level of expressed mRNA in the presence of chemical substance / the level in the absence of chemical substance, yeast gene YPL107W (gene YPL107W, DNA chip fluorescence ratio to control without chemical, 2 hours culture with chemical, growth-inhibiting non-lethal concentration): 0.7
The level of expressed mRNA in the presence of chemical substance / the level in the absence of chemical substance, yeast gene YPL138C (gene YPL138C, DNA chip fluorescence ratio to control without chemical, 2 hours culture with chemical, growth-inhibiting non-lethal concentration): 2.7
The level of expressed mRNA in the presence of chemical substance/absence: YPL150W (gene YPL150W): 1.1
The level of expressed mRNA in the presence of chemical substance/absence: YPL151C (gene YPL151C): 1.8
The level of expressed mRNA in the presence of chemical substance/absence: YPL152W (gene YPL152W): 2.3
The level of expressed mRNA in the presence of chemical substance/absence: YPL168W (gene YPL168W): 0.8
The level of expressed mRNA in the presence of chemical substance/absence: YPL180W (gene YPL180W): 0.7
The level of expressed mRNA in the presence of chemical substance/absence: YPL188W (gene YPL188W): 0.8
The level of expressed mRNA in the presence of chemical substance/absence: YPL221W (gene YPL221W): 1.0
The level of expressed mRNA in the presence of chemical substance/absence: YPL225W (gene YPL225W): 0.9
The level of expressed mRNA in the presence of chemical substance/absence: YPL249C (gene YPL249C): 1.0
The level of expressed mRNA in the presence of chemical substance/absence: YPL260W (gene YPL260W): 1.3
level of expressed mRNA in the presence of chemical substance/in its absence (gene YPL265W): 1.2
level of expressed mRNA in the presence of chemical substance/in its absence (gene YPR006C): 0.7
level of expressed mRNA in the presence of chemical substance/in its absence (gene YPR026W): 3.1
The level of expressed mRNA in the presence of chemical substance/absence: YPR049C (gene YPR049C): 1.5
The level of expressed mRNA in the presence of chemical substance/absence: YPR061C (gene YPR061C): 0.4
The level of expressed mRNA in the presence of chemical substance/absence: YPR093C (gene YPR093C): 0.8
The level of expressed mRNA in the presence of chemical substance/absence: YPR146C (gene YPR146C): 0.9
The level of expressed mRNA in the presence of chemical substance/absence: YPR148C (gene YPR148C): 1.7
The level of expressed mRNA in the presence of chemical substance/absence: YPR150W (gene YPR150W): 0.9
The level of expressed mRNA in the presence of chemical substance/absence: YPR158W (gene YPR158W): 0.9
The level of expressed mRNA in the presence of chemical substance/absence: YPR169W (gene YPR169W): 0.9
The level of expressed mRNA in the presence of chemical substance/absence: YPR172W (gene YPR172W): 1.5
The level of expressed mRNA in the presence of chemical substance/absence: YPR174C (gene YPR174C): 1.2
The level of expressed mRNA in the presence of chemical substance/The level of expressed mRNA in the absence of chemical substance (yeast gene YAR010C): 1.8
The level of expressed mRNA in the presence of chemical substance/The level of expressed mRNA in the absence of chemical substance (yeast gene YBL005W-A): 0.9
The level of expressed mRNA in the presence of chemical substance/ (ratio to absence), gene YBL038W (yeast gene YBL038W, mitochondria-located protein genes, 2 h culture with chemical): 0.7
The level of expressed mRNA in the presence of chemical substance/The level of expressed mRNA in the absence of chemical substance (yeast gene YBL041W): 1.3
The level of expressed mRNA in the presence of chemical substance/The level of expressed mRNA in the absence of chemical substance (yeast gene YBL043W): 1.8
The level of expressed mRNA in the presence of chemical substance/The level of expressed mRNA in the absence of chemical substance (yeast gene YBL078C): 2.5
The level of expressed mRNA in the presence of chemical substance/ (ratio to absence of chemical substance) (yeast gene YBL093C): 0.5
The level of expressed mRNA in the presence of chemical substance/ (in its absence), gene YBR036C (yeast gene YBR036C, ratio of DNA chip fluorescence intensity to that without chemical substance): 1.5
The level of expressed mRNA in the presence of chemical substance/ (ratio to absence of chemical substance) (yeast gene YBR044C): 0.9
The level of expressed mRNA in the presence of chemical substance/ (ratio to absence), gene YBR122C (yeast gene YBR122C, mitochondria-located protein genes, 2 h culture with chemical): 0.7
The level of expressed mRNA in the presence of chemical substance/The level of expressed mRNA in the absence of chemical substance (yeast gene YBR214W): 5.1
The level of expressed mRNA in the presence of chemical substance/ (ratio to absence), gene YBR251W (yeast gene YBR251W, mitochondria-located protein genes, 2 h culture with chemical): 0.8
The level of expressed mRNA in the presence of chemical substance/ (in its absence), gene YBR298C (yeast gene YBR298C, ratio of DNA chip fluorescence intensity to that without chemical substance): 0.2
The level of expressed mRNA in the presence of chemical substance/The level of expressed mRNA in the absence of chemical substance (yeast gene YCL020W): 2.5
The level of expressed mRNA in the presence of chemical substance/The level of expressed mRNA in the absence of chemical substance (yeast gene YCL027W): 3.6
The level of expressed mRNA in the presence of chemical substance/The level of expressed mRNA in the absence of chemical substance (yeast gene YCR004C): 0.8
The level of expressed mRNA in the presence of chemical substance/ (ratio to absence), gene YCR046C (yeast gene YCR046C, mitochondria-located protein genes, 2 h culture with chemical): 1.4
The level of expressed mRNA in the presence of chemical substance/The level of expressed mRNA in the absence of chemical substance (yeast gene YCR071C): 1.1
The level of expressed mRNA in the presence of chemical substance/ (ratio to absence), gene YCR083W (yeast gene YCR083W, mitochondria-located protein genes, 2 h culture with chemical): 1.0
The level of expressed mRNA in the presence of chemical substance/ (ratio to absence of chemical substance) (yeast gene YCR083W): 1.0
The level of expressed mRNA in the presence of chemical substance/The level of expressed mRNA in the absence of chemical substance (yeast gene YCR088W): 2.8
The level of expressed mRNA in the presence of chemical substance/The level of expressed mRNA in the absence of chemical substance (yeast gene YDL008W): 0.7
The level of expressed mRNA in the presence of chemical substance/ in its absence, gene YDL067C (yeast gene YDL067C, energy system protein genes, 2 h culture with the chemical, ratio to control without chemical): 0.7
The level of expressed mRNA in the presence of chemical substance/ (ratio to absence), gene YDL067C (yeast gene YDL067C, mitochondria-located protein genes, 2 h culture with chemical): 0.7
The level of expressed mRNA in the presence of chemical substance/ in its absence, gene YDL078C (yeast gene YDL078C, energy system protein genes, 2 h culture with the chemical, ratio to control without chemical): 0.5
